Data as given in the Bradley open melting point set (2014).
“And” between values parts separate entries of the source, which are not always exact repeats. Equal entries are not always repeated.

| melting point | SMILES |
| --- | --- |
| 121 °C | CCOC(=O)c1cc(C)n(C2=CC(C)N=N2)n1 (configuration not stated) [ethyl 5,5'-dimethyl-1'H-1,3'-bipyrazole-3-carboxylate] |
| -78 °C | C[SiH](C)O[SiH](C)C [1,1,3,3-tetramethyldisiloxane] |
| 16 °C | BrCCCCCCCCBr [1,8-dibromooctane] |
| 168 °C | O=C(O)c1cc(Br)ccc1O [5-bromosalicylic acid] |
| 226 °C | Cc1cc(/C=C2\S/C(=N\c3ccccc3)N(c3ccccc3)C2=O)c(C)n1-c1ccc(C(F)(F)F)cc1 [OSM-S-52] |
| 152 °C | O=C(O)CC(S)C(=O)O (configuration not stated) [mercaptosuccinic acid] |
| 159 °C | COc1ccc(N=C(CNc2ccc(OC)cc2)Nc2ccc(OC)cc2)cc1 |
| 142 °C | O=C(O)/C=C/c1ccco1 [3-(2-furyl)acrylic acid] |
| 92 °C | COc1ccc(N=C=S)c([N+](=O)[O-])c1 [4-methoxy-2-nitrophenyl isothiocyanate] |
| -15 °C | Cc1ccc(Cl)c(Cl)c1 [3,4-dichlorotoluene] |
| 191 °C | O=C1O[C@H]([C@@H](O)CO)C(O)=C1O [Vitamin C] |
| 45 °C | CC(=O)Oc1cccc2ccccc12 [1-naphthyl acetate] |
| 134 °C | O=C(c1ccccc1)C(O)c1ccccc1 (configuration not stated) [benzoin] |
| 161 °C | O=Cc1ccc(O)c(O)c1O [2,3,4-trihydroxybenzaldehyde] |
| 87 °C | N#CC(C#N)=Nc1ccccc1 [(phenylimino)propanedinitrile] |
| 148 °C | CC(=O)Nc1cccc(O)c1 [3-acetamidophenol] |
| 202 °C | O=C1NC(=O)c2cc([N+](=O)[O-])ccc21 [4-nitrophthalimide] |
| 185 °C | Nc1ccc2cc(O)ccc2c1 [6-Amino-2-naphthalenol] |
| 121 °C | O=C1SCCN1C(=O)c1ccccc1 [3-Benzoyl-1,3-thiazolidin-2-one] |
| -15 °C | OCc1ccccc1 [benzyl alcohol] |
| 75 °C | C=CCC(CC)(CC)C(N)=O [novonal] |
| 96 °C | CCCOC(=O)c1ccc(O)cc1 [propyl p-hydroxybenzoate] |
| 57 °C | Cc1cccc(OCC(O)CNC(C)(C)C)c1C (configuration not stated) [xibenolol] |
| 254 °C | Nc1cccc2c1C(=O)c1ccccc1C2=O [1-aminoanthraquinone] |
| 147 °C | O=C(O)c1ccccc1[N+](=O)[O-] [2-Nitrobenzoic acid] |

| melting point | SMILES |
| --- | --- |
| 51 °C | CCN(CC)c1ccc(C(=O)CBr)cc1 [2-bromo-4'-(diethylamino)acetophenone] |
| 133 °C | Cc1ccc(-c2csc(/C(C#N)=N/Nc3cccc(C)c3)n2)cc1 |
| 92 °C | C=CCOc1ccc(CC(=O)O)cc1Cl [Epinal] |
| 83 °C | O=C1Cc2ccccc2CO1 [1,4-Dihydro-3H-isochromen-3-on] |
| -18 °C | CCCCCCCN [1-aminoheptane] |
| 63 °C | Nc1ccc(I)cc1 [p-iodoaniline] |
| 182 °C | COc1ccc(NS(=O)(=O)c2ccc(N)cc2)nn1 [Sulfamethoxypyridazine] |
| 163 °C | NC(N)=Nc1nc(CSCCC(N)=NS(N)(=O)=O)cs1 [famotidine] |
| -1 °C | Brc1cccc2ccccc12 [1-bromonaphthalene] |
| 128 °C | Cc1cccc2c(O)cc(C(F)(F)F)nc12 [4-hydroxy-8-methyl-2-(trifluoromethyl)quinoline] |
| 135 °C | O=C(c1ccccc1)C(O)c1ccccc1 (configuration not stated) [2-Hydroxy-1,2-diphenylethanone] |
| 187 °C | O=C(O)c1ccccc1Nc1ccccc1 [N-phenylanthranilic acid] |
| 52 °C | Cc1ccc(S(=O)(=O)CCO)cc1 [2-(p-toluenesulfonyl)ethanol] |
| 230 °C | O=C(O)c1ccccc1C(=O)O [phthalic acid] |
| 77.5 °C | CC(C)Cc1ccc(C(C)C(=O)O)cc1 (configuration not stated) [2-(4-Isobutylphenyl)propanoic acid] |
| 109 °C | Oc1ccc2[nH]ccc2c1 [5-hydroxyindole] |
| 203 °C | C[C@H](CCC(=O)O)[C@H]1CC[C@H]2[C@@H]3[C@@H](O)C[C@@H]4C[C@H](O)CC[C@]4(C)[C@H]3CC[C@]12C [ursodeoxycholic acid] |
| 33 °C | BrCCOc1ccccc1 [2-phenoxyethyl bromide] |
| 166 °C | CN(C)c1ccc(CNC2=CC(=O)c3ccccc3C2=O)cc1 [2-{[4-(dimethylamino)benzyl]amino}naphthalene-1,4-dione] |
| 175 °C | O=C(c1ccc(Br)cc1)c1ccc(Br)cc1 [p,p'-dibromobenzophenone] |
| 36 °C | CC(=O)c1cccc(C(C)=O)c1 [m-diacetylbenzene] |
| 116 °C | CS(=O)(=O)OCCCCOS(C)(=O)=O [busulfan] |
| 166 °C | Clc1ncc[nH]1 [2-chloroimidazole] |
| 53 °C | Cn1c2c(c3ccccc31)CCCC2 [N-methyl-1,2,3,4-tetrahydrocarbazole] |
| -12 °C | FC(F)(F)c1ccc(Cl)c(Cl)c1 [3,4-dichlorobenzotrifluoride] |

| melting point | SMILES |
| --- | --- |
| 99 °C and 100 °C | CN(C)c1ccc(/C=N/c2ccccc2)cc1 [N-(4-Dimethylaminobenzylidene)aniline] |
| 159 °C | COc1ccccc1/C=C(/C#N)c1nc2ccccc2s1 |
| 130 °C | C1=CC2=CC=C3C=CC=CC4=C3CC2=C(C=C1)C=C4 [6H-5,7-ethenocyclohepta[b]heptalene] |
| 183 °C | CC1(C)COB(B2OCC(C)(C)CO2)OC1 [bis(neopentyl glycolato)diboron] |
| 100 °C | COC(=O)c1ccccc1C(N)=O [phthalic_acid,_methylester_amide] |
| 89 °C | ON=C1CCCCC1 [cyclohexanone oxime] |
| 19 °C | CC(=O)c1ccccc1 [1-Phenylethanone] |
| 87 °C | CC(=O)N(C)c1ccc(Cl)cc1Cl [2',4'-dichloro-n-methylacetanilide] |
| 53 °C | N#CCc1ccc(I)cc1 [4-iodophenylacetonitrile] |
| 81 °C | CC(N)=O [Acetamide] |
| 27 °C | COC(=O)CCCCCCCCC(=O)OC [dimethyl sebacate] |
| 117 °C | CCOC(=O)/C(C#N)=C\c1ccc(-c2ccccc2)o1 [Ethyl (2Z)-2-cyano-3-(5-phenyl-2-furyl)acrylate] |
| -61 °C | C=C1CCC2CC1C2(C)C (configuration not stated) [b-pinene] |
| 139 °C | O=C1CCC2CCc3ccccc3C2O1 (configuration not stated) [3,4,4a,5,6,10b-hexahydro-2H-benzo[h]chromen-2-one] |
| 184 °C | O=C(O)c1ccc2ccccc2c1 [2-naphthoic acid] |
| 180 °C | COc1ccc(C(=O)O)cc1OCc1ccccc1 [3-benzyloxy-4-methoxybenzoic acid] |
| 145 °C | O=C1OC(c2ccccc2)=N/C1=C/c1ccc(-c2cccc([N+](=O)[O-])c2)o1 |
| 47 °C | CC(C)(C)OC(=O)N1CCC[C@@H](O)C1 [(R)-1-boc-3-hydroxypiperidine] |
| 234 °C | Cc1ccnc(NS(=O)(=O)c2ccc(N)cc2)n1 [sulfamerazine] |
| 68 °C | COc1ccccc1N1CCN(CCCC(=O)c2ccc(F)cc2)CC1 [4-[4-(o-Methoxyphenyl)-1-piperazinyl]-p-fluorobutyrophenone] |
| 130 °C | C1CSCCSCCNCCSCCSCCN1 [1,4,10,13-tetrathia-7,16-diazacyclooctadecane] |
| 130 °C | CC(=O)OC1=c2ccccc2=NC1c1ccccn1 (configuration not stated) [2-pyridin-2-yl-1H-indol-3-yl acetate] |
| 270 °C | O=C1CCC(N2C(=O)c3ccccc3C2=O)C(=O)N1 (configuration not stated) [Thalidomide] |
| 151 °C | C#CCON1C(=O)c2ccccc2C1=O [N-propargyloxyphthalimide] |

| SMILES | melting point |
| --- | --- |
| OB(O)c1ccc(Cl)cc1 [4-chlorobenzeneboronic acid] | 273 °C |
| CCC1(OC(C)=O)CCC2(C)C(CCC3C4CCC(=O)C4(C)CCC32)C1 (configuration not stated) [3-ethyl-17-oxoandrostan-3-yl acetate] | 126 °C |
| Cc1ccc([N+](=O)[O-])c(C)c1 [2,4-Dimethyl-1-nitrobenzene] | 7 °C |
| O=P1(N(CCCl)CCCl)NCCCO1 (configuration not stated) [Cyclophosphamide] | 43 °C |
| CCOP(=O)(OCC)OCC [Triethyl phosphate] | -56 °C |
| Clc1cccc(Cl)c1 [1,3-dichlorobenzene] | -25 °C |
| Cc1cccc(C)c1[N+](=O)[O-] [2-nitro-1,3-dimethylbenzene] | 16 °C |
| Clc1cc(Cl)c(-c2cc(Cl)c(Cl)cc2Cl)cc1Cl [PCB-153] | 103 °C |
| O=C1CN=C(c2ccccc2Cl)c2cc([N+](=O)[O-])ccc2N1 [Clonazepam] | 238 °C |
| Cl[C@H]1[C@H](Cl)[C@@H](Cl)[C@H](Cl)[C@H](Cl)[C@H]1Cl [(1R,2R,3R,4R,5S,6S)-1,2,3,4,5,6-Hexachlorocyclohexane] | 159 °C |
| N#Cc1ccc(C=O)cc1 [4-cyanobenzaldehyde] | 102 °C |
| CCCCl [1-Chloropropane] | -122 °C |
| O=C=NC1CCCCC1 [cyclohexyl isocyanate] | -80 °C |
| CN(C)CCO [2-(dimethylamino)ethanol] | -60 °C |
| O=C5\C=C4/C(C3CCC2(C(CCC2OC(=O)c1ccccc1)C3CC4)C)(C)CC5 (configuration not stated) [testosterone benzoate] | 195 °C |
| O=Cc1ccc([N+](=O)[O-])cc1[N+](=O)[O-] [2,4-dinitrobenzaldehyde] | 67 °C |
| O=P1(N(CCCl)CCCl)NCCCO1 (configuration not stated) [N,N-Bis(2-chloroethyl)-1,3,2-oxazaphosphinan-2-amine 2-oxide] | 43 °C |
| O=c1[nH]c2ccccc2n1C1CCN(CCCC(c2ccc(F)cc2)c2ccc(F)cc2)CC1 [Pimozide] | 216 °C |
| CC(=O)Oc1cccc(-c2ccccc2)c1 [3-acetoxybiphenyl] | 34 °C |
| CCCCCCCCCl [1-chlorooctane] | -58 °C |
| CCCCCCCCCCCC#N [dodecanonitrile] | 4 °C |
| ClC(Cl)(Cl)C(Cl)(Cl)Cl [hexachloroethane] | 192 °C |
| Brc1ccc2ccccc2c1 [2-bromonaphthalene] | 55 °C |
